The record followed here is patent US9738902B2, “Modified PYR/PYL receptors activated by ligands” (priority 2013, dated 2017).

The subject of experiment [1] is MDP1 and MDP2 transgenic lines (35S::PYR1^MANDI). In words: thermal imaging of leaf temperature. Format: in vivo, Arabidopsis. The following applies: 1 μM mandipropamid, 24 hours after first application.
For experiment [2], the target named is T1, PYR1 K59R F108A S122G (Arabidopsis thaliana, UniProt O49686, F108A/K59R/S122G).
T1 construct: expressed in transfected cells; host or cells: S. cerevisiae Y190 two-hybrid reporter strain
In words: Y2H Combinatorial Mutagenesis Screen I (HAB1, X-gal). Type of experiment: cell-based. The source says: This screening approach yielded mutants at ligand contacting residues that alter sensitivity to specific ligands. We reasoned that receptor sensitivity could be improved by systematically constructing combinations of the best mutant variants identified in the first round of screening. To test this, we constructed mutant combinations using the strongest mutations identified for mandipropamid, benzothiadiazole, benoxacor or fludioxonil sensitivity. The mutations selected for combinatorial mutagenesis are listed in bold type in Table 1; The mutant combinations were constructed using the QuickChange Lightning Multi Site-Directed PCR Mutagenesis kit (Agilent, USA) using pBD-PYR1^K59R template DNA and mutagenic primers, essentially as previously described (Mosquna et al., 2011). The mutant combinations were sequence validated, introduced into the pACT-HAB1 Y190 reporter strain and then tested for responsiveness to a range of compound concentrations (100, 50, 25, 10, 1, 0.2, 0.1 or 0 μM each test compound). These efforts yielded double mutant receptor variants with improved sensitivity for the 4 compound/receptor pairs examined (see entries labeled “Combinatorial Mutagenesis Screen I” in Table 1).
The preceding efforts identified PYR1^K59R,F108A,S122G, which is responsive to mandipropamid concentrations as low as 1 μM. […]

For experiment [3], the system named is PYR1^MANDI transgenic plants (E15, E16, F29, F34). Put plainly: progressive water loss regime (drought). Type of experiment: in vivo, Arabidopsis. The following applies: 2 μM mandipropamid, repeated 4 days later; day 11. The procedure: Treatment of plants with ABA delays water loss and additionally improves the ability of plants to recover from drought. We therefore examined the behavior of wild type, 35S::GFP-PYR and 4 homozygous PYR1^MANDI expressing transgenic plants (E15, E16, F29 and F34) during a progressive water loss regime. […] Plants were grown for three weeks in pots containing the same mass of soil and receiving the same amount of water at each watering. At three weeks after germination, regular watering of the plants was ceased and plants were treated with mock or 2 μM mandipropamid. These treatments were repeated 4 days later. Plants were photographed at 1, 10 and 11 days after initiation of water deprivation. As is evident from FIG. 6, by day 10 mock treated plants display evidence of water stress as indicated by collapsed leaves, by day 11 all mock treated plants have experienced severe desiccation. […] This is also observed for wild type and 35S::GFP-PYR plants treated with mandipropamid at day 10. […] This is in contrast to wild type and 35S::GFP-PYR1 control plants treated with mandipropamid and all mock treated lines. Thus, mandipropamid is able to improve drought stress tolerance in PYR1^MANDI expressing transgenic plants. The beneficial effects of mandipropamid are restricted to PYR1^MANDI expressing transgenic plants.

In experiment [4] the test system is PYR1 Y58H K59R V81I F108A F159L. Put plainly: Y2H Combinatorial Mutagenesis II (HAB1, X-gal). Type of experiment: cell-based, Arabidopsis. The text has this: Both of the above optimization experiments led to the identification of the following mutations that, when introduced one at a time, enhance the mandipropamid sensitivity of PYR1^K59R,F108A,S122G: Y58H, V81C, V81I, V81T, V83L, L87A, F159L, F159M, F159V, A160V and V164I. Given that these each enhance sensitivity on their own, we tested if combinations of these mutations might generate more sensitive receptors. Mutagenic primers for each of the mutations were designed and used simultaneously with the QuickChange Lightning Multi Site-Directed Mutagenesis kit (Agilent, USA) with PYR1^K59R,F108A,S122G template DNA. Individual clones were sequenced to identify bona fide combination mutants, which were transformed into the Y190 pACT-HAB1 yeast strain and assayed for mandipropamid sensitivity. These efforts led to the identification of several improved receptors (“Combinatorial Mutagenesis Screen II”, Table 1), including PYR1^Y58H,K59R,V81I,F108A,S122G,F159L, a hextuple mutant that we have named PYR1^MANDI. Yeast reporter strains expressing this mutant are responsive to mandipropamid concentrations as low as 2 nM (Table 1). Thus, the 5-step mutagenesis protocol we followed led to the construction of a mandipropamid responsive receptor with nanomolar sensitivity.

T1 sequence (Q9CAJ0 23-511): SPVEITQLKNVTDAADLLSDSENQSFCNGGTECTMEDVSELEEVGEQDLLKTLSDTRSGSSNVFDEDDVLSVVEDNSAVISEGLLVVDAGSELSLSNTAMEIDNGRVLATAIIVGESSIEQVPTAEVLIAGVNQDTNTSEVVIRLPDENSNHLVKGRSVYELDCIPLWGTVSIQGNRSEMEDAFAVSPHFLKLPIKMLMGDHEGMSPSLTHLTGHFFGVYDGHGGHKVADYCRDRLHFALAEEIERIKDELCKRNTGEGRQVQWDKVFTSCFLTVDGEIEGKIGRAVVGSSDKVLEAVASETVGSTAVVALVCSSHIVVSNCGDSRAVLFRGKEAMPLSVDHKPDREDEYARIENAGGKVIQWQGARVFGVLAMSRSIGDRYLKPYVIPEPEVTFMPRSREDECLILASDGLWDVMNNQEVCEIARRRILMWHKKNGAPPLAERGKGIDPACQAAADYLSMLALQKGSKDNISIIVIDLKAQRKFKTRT
T1 sequence (O49686 whole entry K59R/F108A/S122G): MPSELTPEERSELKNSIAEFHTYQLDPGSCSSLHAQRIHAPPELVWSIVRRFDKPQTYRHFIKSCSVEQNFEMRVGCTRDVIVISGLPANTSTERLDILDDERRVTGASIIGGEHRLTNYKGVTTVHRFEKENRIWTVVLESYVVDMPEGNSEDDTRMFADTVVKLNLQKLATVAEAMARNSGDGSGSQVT

For `C#CCOc1ccc(CCNC(=O)C(OCC#C)c2ccc(Cl)cc2)cc1OC` (stereo not shown) [Mandipropamid, mandipropamid], the leaf temperature entry in experiment [1] is given as “increased leaf temperature”. Also, the values for the Threshold in experiment [2] and in experiment [4] were 1 µM and 0.01 µM, respectively. In experiment [3], the “desiccation during water deprivation” value was “not desiccated”.
